Reference: patent US8373021B2, “Improving disease resistance in plants by introducing transcription factor gene” (priority 2005, dated 2013)

Key:
Format in all cases: in vivo
[1] = system: OsWRKY45; assay: Induction of OsWRKY45 gene expression by BTH treatment (Northern blot analysis); conditions: rice seedlings 3.5-leaf stage, 0.5 mM BTH, leaves
Protocol: FIG. 1 depicts the induction of OsWRKY45 gene expression by BTH treatment. Rice plants at the 3.5-leaf stage were treated with BTH, and RNAs were prepared from leaves over time and subjected to Northern analysis. For comparison, two types of PR genes (PR1b and PBZ1) were also examined for induction of expression.
In order to detect a transcription factor gene inducibly expressed by BTH, rice seedlings (3.5-leaf stage) on day 10 after seeding were treated with 0.5 mM BTH (in 0.01% Tween 20/0.5% acetone), and the RNAs prepared over time (12, 24, 72, and 120 hours after the treatment) from BTH-treated and mock-treated rice leaves were subjected to DNA microarray analysis with the rice 22K array (Agilent). As a result, a WRKY transcription factor gene (OsWRKY45, AK066255; SEQ ID NOs: 1 and 2) that is inducibly expressed by BTH treatment was found.

[2] = system: blast disease fungus (race 007); assay: Blast disease assay after BTH treatment in non-transformed and OsWRKY45 RNAi rice plants; conditions: 0.5 mM BTH sprayed at 4-leaf stage, inoculated 2 days later, counted after 7 days
Source text: FIG. 8 is a graph depicting the results of inducing the blast disease resistance by BTH in rice plants in which OsWRKY45 expression is suppressed. A blast disease fungus was inoculated into non-transformed rice plants, either treated or not treated with BTH, and BTH-treated rice plants in which OsWRKY45 expression was suppressed. After seven days, the number of blotches on the 10-cm long central part of leaf blades was counted in each plant.
In order to examine the effect of suppression of OsWRKY45 expression on the blast disease resistance induced in rice by BTH treatment, non-transformed rice plants and transformed lines of rice plant in which the suppression of OsWRKY45 expression by RNAi had been confirmed were sprayed with 0.5 mM BTH at the 4-leaf stage, and then inoculated with a compatible blast disease fungus (race 007) 2 days later. After 7 days, the blotches present on the 10-cm long central part of leaf blades were counted in each plant body.

[3] = system: PR1b and OsWRKY45 expression; assay: Induction of PR1b and OsWRKY45 expression by BTH in NH1 RNAi rice plants (RT-PCR); conditions: rice plants in which NH1 was suppressed by RNAi
Source text: FIG. 10 is composed of photographs depicting OsWRKY45 expression in rice plants in which the expression of NH1, a rice NPR1 homolog, is suppressed by RNAi. Two lines (#7 and #14) in which the NH1 expression was suppressed by RNAi were BTH-treated or mock-treated to examine the induction of expression of PR1b and OsWRKY45 by RT-PCR.
Recently, it was reported that in Arabidopsis thaliana, the resistance to a filamentous fungus, Erysiphe cichoracearum, was enhanced by the introduction of WRKY70, a WRKY transcription factor (Li, J., Brader, G., Kariola, T., and Palva, E. T. (2006). WRKY70 modulates the selection of signaling pathways in plant defense. Plant J. 46, 477-491). […] From these findings, WRKY70 is thought to be a transcription factor downstream of NPR1. Thus, for comparison of functions between WRKY70 and OsWRKY45, the induction of PR1b and OsWRKY45 expressions by BTH was examined in rice plants in which NH1, a rice NPR1 homolog (Chern, M., Fitzgerald, H. A., Canlas, P. E., Navarre, D. A., and Ronald, P. C. (2005). Overexpression of a rice NPR1 homolog leads to constitutive activation of defense response and hypersensitivity to light. Mol. Plant-Microbe Int. 18, 511-520) was suppressed by RNAi.

c1ccc2snnc2c1 [BTH, benzothiadiazole] was tested, and the “time after BTH treatment within which OsWRKY45 expression was induced” value [1] was at most 3 h, the “blotches on the 10-cm long central part of leaf blades” value ([2]; non-transformed rice) was “Almost no blotches were observed” and the “blotches on the 10-cm long central part of leaf blades” value ([2]; rice with OsWRKY45 expression suppressed by RNAi) was “nearly equal number of blotches to that in non-treated, non-transformed rice plants”. The “induction of OsWRKY45 expression by BTH” value [3] was “not affected at all” and the “induction of PR1b expression by BTH” value [3] was “completely lost”.
